From patent US9718790B2, “Triazine derivative and pharmaceutical composition having an analgesic activity comprising the same” (SHIONOGI & CO., LTD., priority 2010, dated 2017)

Molecular target: human P2X3 receptor (Homo sapiens (Human), UniProt P56373)
Experiment: Evaluation of human P2X3 receptor inhibitory activity (Fluo-3 calcium fluorescence, FDSS 3000, ATP stimulation);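 note: stimulus was 50 nM ATP with fluorescence followed for 3 min, and the response per well was peak post-ATP fluorescence divided by the reading at measurement start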
Type: cell-based
Conditions: C6BU-1 cells stably expressing human P2X3 receptor

Chain of human P2X3 receptor (P56373 whole entry): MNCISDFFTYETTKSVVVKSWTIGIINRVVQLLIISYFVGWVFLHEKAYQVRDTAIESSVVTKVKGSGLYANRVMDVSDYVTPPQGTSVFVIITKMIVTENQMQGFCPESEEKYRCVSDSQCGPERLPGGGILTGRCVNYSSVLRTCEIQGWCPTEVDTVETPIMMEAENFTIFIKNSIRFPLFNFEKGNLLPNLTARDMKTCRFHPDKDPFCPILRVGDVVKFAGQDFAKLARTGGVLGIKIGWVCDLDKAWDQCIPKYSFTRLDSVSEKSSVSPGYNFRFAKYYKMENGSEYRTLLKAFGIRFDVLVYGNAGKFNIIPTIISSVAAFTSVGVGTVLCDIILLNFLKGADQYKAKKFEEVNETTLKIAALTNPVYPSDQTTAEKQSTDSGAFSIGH

| Structure (SMILES) | IC50 |
| --- | --- |
| Cc1cc(/N=c2\[nH]c(=O)n(Cc3cccnc3OCCO)c(=O)n2Cc2ccc(Cl)cc2)ccc1OC(C)C [Compound I-0715] | 13 nM |
| Cc1ccc(Cn2c(=O)n(C[C@H](C)C(=O)O)c(=O)[nH]/c2=N\c2ccc(OC3COC3)cc2)cc1 [Compound I-1221] | 117 nM |
| C[C@@H](Cn1c(=O)[nH]/c(=N\c2ccc(OC3CCC3)cc2)n(Cc2ccc(Cl)cc2)c1=O)C(=O)O [Compound I-1284] | 15 nM |
| COC(=O)[C@@H](C)Cn1c(=O)[nH]/c(=N\c2ccc(COC(C)C)cc2)n(Cc2ccc(Cl)cc2)c1=O [Compound I-0656] | 100 nM |
| CCOC(=O)CCCn1c(=O)[nH]/c(=N\c2ccc(Oc3ccnc(C)c3)cc2)n(Cc2ccc(C)cc2)c1=O [Compound I-1397] | 3 nM |
| COC(=O)[C@@H](C)[C@@H](C)n1c(=O)[nH]/c(=N\c2ccc(OC(C)C)c(C)c2)n(Cc2ccc(Cl)cc2)c1=O [Compound I-0811] | 40 nM |
| Cc1ccc(Cn2c(=O)n(CCC(=O)O)c(=O)[nH]/c2=N\c2ccc(OC(C)C)c(CO)c2)cc1 [Compound I-1429] | 232 nM |
| COC(=O)[C@@H](C)Cn1c(=O)[nH]/c(=N\c2ccc(OCCO)cc2)n(Cc2ccc(Cl)cc2)c1=O [Compound I-0719] | 115 nM |
| CCn1c(=O)[nH]/c(=N\c2ccc(Oc3ccnc(OC)n3)cc2)n(Cc2ccc(Cl)cc2)c1=O [Compound I-2008] | 7 nM |
| CCn1c(=O)[nH]/c(=N\c2ccc(Oc3ccc([N+](=O)[O-])nc3)cc2)n(Cc2ccc(Cl)cc2)c1=O [Compound I-2172] | 1 nM |
| CCn1c(=O)[nH]/c(=N\c2ccc(Oc3cncc(C(=O)OC)c3)cc2)n(CC2CCC(C)(C)CC2)c1=O [Compound I-2204] | 28 nM |
| CC(C)Oc1ccc(/N=c2\[nH]c(=O)n([C@H](C)[C@H](C)C(=O)O)c(=O)n2Cc2ccc(Cl)cc2)cc1Cl [Compound I-1342] | 10 nM |
| Cc1ccc(Oc2ccc(/N=c3\[nH]c(=O)n([C@@H](C)[C@@H](C)C(=O)O)c(=O)n3Cc3ccc(Cl)cc3)cc2)cn1 [Compound I-1388] | 9 nM |
| COC(=O)Cn1cccc(Cn2c(=O)[nH]/c(=N\c3ccc(OC(C)C)c(C)c3)n(Cc3ccc(Cl)cc3)c2=O)c1=O [Compound I-0757] | 35 nM |
| CCCOc1ccc(/N=c2\[nH]c(=O)n(C[C@H](C)C(=O)OC)c(=O)n2Cc2ccc(Cl)cc2)cc1C [Compound I-0707] | 21 nM |
| CCn1c(=O)[nH]/c(=N\c2ccc(Oc3cncc(CO)c3)cc2)n(Cc2ccc(Cl)cc2)c1=O [Compound I-2075] | 21 nM |
| C=Cc1cc(/N=c2\[nH]c(=O)n(C[C@H](C)C(=O)O)c(=O)n2Cc2ccc(C)cc2)ccc1OCC [Compound I-1194] | 31 nM |

Same assay, conditions: C6BU-1 cells stably expressing human P2X3 receptor, Fluo-3 fluorescence, FDSS 3000

| Structure (SMILES) | IC50 |
| --- | --- |
| Cc1ccc(Cn2c(=O)n(C[C@H](C)C(=O)O)c(=O)[nH]/c2=N\c2ccc(OC(F)(F)F)cc2)cc1 [Compound I-1002] | 298 nM |
| COC(=O)[C@H](C)Cn1c(=O)[nH]/c(=N\c2ccc(OC(C)C)cc2)n(Cc2ccc(C)cc2)c1=O [Compound I-1104] | 11 nM |
| Cc1nc2ccc(/N=c3\[nH]c(=O)n(C[C@H](O)CO)c(=O)n3Cc3ccc(Cl)cc3)cc2s1 [Compound I-1618] | 8 nM |
| O=c1[nH]/c(=N\c2ccc(Oc3ccnc(O)c3)cc2)n(Cc2ccc(Cl)cc2)c(=O)n1C[C@H](O)CO [Compound I-1731] | 5 nM |
| CCc1nc2ccc(/N=c3\[nH]c(=O)n(CCCC(=O)O)c(=O)n3Cc3ccc(Cl)cc3)cc2s1 [Compound I-1705] | 14 nM |
| Cc1ccc(Cn2c(=O)n(CCC(=O)O)c(=O)[nH]/c2=N\c2ccc(O[C@H](C)C(F)(F)F)cc2)cc1 [Compound I-1031] | 64 nM |
| COC(=O)[C@@H](C)Cn1c(=O)[nH]/c(=N\c2ccc(C=C(C)C)c(C)c2)n(Cc2ccc(Cl)cc2)c1=O [Compound I-0948] | 19 nM |
| CC(C)Oc1ccc(/N=c2\[nH]c(=O)n(C[C@H](C)C(=O)O)c(=O)n2Cc2ccc(I)cc2)cc1 [Compound I-1092] | 69 nM |
| CCn1c(=O)[nH]/c(=N\c2ccc(Oc3cncc(C(=O)OC)c3)cc2)n(Cc2ccc(Cl)cc2)c1=O [Compound I-1863] | 5 nM |
| CCc1nc2ccc(/N=c3\[nH]c(=O)n(CCC(N)=O)c(=O)n3Cc3ccc(Cl)cc3)cc2s1 [Compound I-1768] | 6 nM |
| CCC[C@H](C)Oc1ccc(/N=c2\[nH]c(=O)n(C[C@H](C)C(=O)OC)c(=O)n2Cc2ccc(C)cc2)cc1 [Compound I-1046] | 28 nM |
| CNC(=O)Cn1c(=O)[nH]/c(=N\c2ccc(Oc3ccc(O)nc3)cc2)n(Cc2ccc(Cl)cc2)c1=O [Compound I-1901] | 15 nM |

Same assay, conditions: human P2X3 receptor, Test Example 1

| Structure (SMILES) | IC50 |
| --- | --- |
| Cn1c(=O)[nH]/c(=N\c2ccc(Oc3cnc(C(=O)O)cn3)cc2)n(Cc2ccc(Cl)cc2)c1=O [Compound I-2386] | 13 nM |
| Cc1ccc(Cn2c(=O)n(C[C@H](C)C(=O)O)c(=O)[nH]/c2=N\c2ccc(OCC(F)F)cc2)cc1 [Compound I-0849] | 78 nM |
| C=COc1ccc(/N=c2\[nH]c(=O)n(C[C@H](C)C(=O)O)c(=O)n2Cc2ccc(C)cc2)cc1Cl [Compound I-1549] | 8 nM |
| COC(=O)/C=C/c1cccc(Oc2ccc(/N=c3\[nH]c(=O)n(C)c(=O)n3Cc3ccc(Cl)cc3)cc2)c1 [Compound I-2329] | 70 nM |
| O=c1[nH]/c(=N\c2ccc(Oc3cccc(O)n3)cc2)n(Cc2ccc(Cl)cc2)c(=O)n1CC(CO)CO [Compound I-2685] | 12 nM |
| O=C(O)c1cc(Oc2ccc(/N=c3\[nH]c(=O)n(CC(F)F)c(=O)n3Cc3ccc(Cl)cc3)cc2)ccn1 [Compound I-2248] | 7 nM |
| CC1(C)OC[C@H](Cn2c(=O)[nH]/c(=N\c3ccc(Oc4cncc(F)c4)cc3)n(Cc3ccc(Cl)cc3)c2=O)O1 [Compound I-2333] | 3 nM |
| CCn1c(=O)[nH]/c(=N\c2ccc(Oc3nc(C(=O)O)cs3)cc2)n(C[C@H]2CC[C@H](C)CC2)c1=O [Compound I-2348] | 4 nM |
| Cc1ccc(Cn2c(=O)n(C)c(=O)[nH]/c2=N\c2ccc(Oc3cccc(/C=C/C(=O)O)c3)cc2)cc1 [Compound I-2363] | 9 nM |
| COC(=O)CCn1c(=O)[nH]/c(=N\c2ccc(Oc3cccc(C#N)n3)cc2)n(Cc2ccc(C)cc2)c1=O [Compound I-2633] | 2 nM |
| CCn1c(=O)[nH]/c(=N\c2ccc(Oc3ccc(C(=O)O)cn3)cc2)n(Cc2ccc(C)cc2)c1=O [Compound I-2400] | 6 nM |
| CCn1c(=O)[nH]/c(=N\c2ccc(Oc3cccc(C(=O)NC#N)n3)cc2)n(Cc2ccc(Cl)cc2)c1=O [Compound I-2593] | 1 nM |
| NC(=O)c1ccc(Oc2ccc(/N=c3\[nH]c(=O)n(CCO)c(=O)n3Cc3ccc(Cl)cc3)cc2)cc1 [Compound I-2559] | 8 nM |
| Cn1c(=O)[nH]/c(=N\c2ccc(Oc3cnc(C(N)=O)cn3)cc2)n(Cc2ccc(Cl)cc2)c1=O [Compound I-2389] | 10 nM |
| Cn1c(=O)[nH]/c(=N\c2ccc(Oc3cccc(C(=O)O)n3)cc2)n(C[C@H]2CC[C@H](C)CC2)c1=O [Compound I-2465] | 4 nM |
| CCn1c(=O)[nH]/c(=N\c2ccc(Oc3ccc(C(=O)OC)cn3)cc2)n(C[C@H]2CC[C@H](C)CC2)c1=O [Compound I-2700] | 353 nM |
| CCOC(=O)C1(Cn2c(=O)[nH]/c(=N\c3ccc4nc(C)sc4c3)n(Cc3ccc(C)cc3)c2=O)CC1 [Compound I-1545] | 3 nM |
| Cc1nsc(Oc2ccc(/N=c3\[nH]c(=O)n(CCC(=O)O)c(=O)n3Cc3ccc(Cl)cc3)cc2)n1 [Compound I-2697] | 19 nM |
